Results on 14 compounds are retold here after patent US20070219203A1, “Arylalkylamino-substituted quinazoline analogues” (Neurogen Corporation, priority 2004, published 2007).

The term IC50 denotes the midpoint of a concentration-inhibition curve.

This experiment concerns the target T1, human capsaicin receptor (Homo sapiens, UniProt Q8NER1).
T1 construct: expressed in transfected cells
Nature of the experiment: Calcium mobilization assay, antagonist activity (Example 6). It is filed as cell-based. The conditions noted are these: 50% decrease in fluorescence response of cells expressing human capsaicin receptor exposed to capsaicin. As to the method:
A cDNA encoding full length human capsaicin receptor (SEQ ID NO:1, 2 or 3 of U.S. Pat. No. 6,482,611) is subcloned in the plasmid pBK-CMV (Stratagene, La Jolla, Calif.) for recombinant expression in mammalian cells.
Human embryonic kidney (HEK293) cells are transfected with the pBK-CMV expression construct encoding the full length human capsaicin receptor using standard methods. The transfected cells are selected for two weeks in media containing G418 (400 μg/ml) to obtain a pool of stably transfected cells. Independent clones are isolated from this pool by limiting dilution to obtain clonal stable cell lines for use in subsequent experiments.
Cells transfected with expression plasmids (as described in Example 4) and thereby expressing human capsaicin receptor are seeded and grown to 70-90% confluency in FALCON black-walled, clear-bottomed 96-well plates (#3904, BECTON-DICKINSON, Franklin Lakes, N.J.). The culture medium is emptied from the 96 well plates and […] calcium sensitive dye (Molecular Probes, Eugene, Oreg.) is added to each well (dye solution: 1 mg […], 440 μL DMSO and 440 μl 20% pluronic acid in DMSO, diluted 1:250 in Krebs-Ringer HEPES (KRH) buffer (25 mM HEPES, 5 mM KCl, 0.96 mM NaH2PO4, 1 mM MgSO4, 2 mM CaCl2, 5 mM glucose, 1 mM probenecid, pH 7.4), 50 μl diluted solution per well). Plates are covered with aluminum foil and incubated at 37° C. for 1-2 hours in an environment containing 5% CO2. After the incubation, the dye is emptied from the plates, and the cells are washed once with KRH buffer, and resuspended in KRH buffer.
To measure the ability of a test compound to agonize or antagonize a calcium mobilization response in cells expressing capsaicin receptors to capsaicin or other vanilloid agonist, the EC50 of the agonist capsaicin is first determined. An additional 20 μl of KRH buffer and 1 μl DMSO is added to each well of cells, prepared as described above. 100 μl capsaicin in KRH buffer is automatically transferred by the FLIPR instrument to each well. Capsaicin-induced calcium mobilization is monitored using either FLUOROSKAN ASCENT (Labsystems; Franklin, Mass.) or FLIPR (fluorometric imaging plate reader system; Molecular Devices, Sunnyvale, Calif.) instruments. Data obtained between 30 and 60 seconds after agonist application are used to generate an 8-point concentration response curve, with final capsaicin concentrations of 1 nM to 3 μM. KALEIDAGRAPH software (Synergy Software, Reading, Pa.) is used to fit the data to the equation: y=a*(1/(1+(b/x)^c)) to determine the 50% excitatory concentration (EC50) for the response. In this equation, y is the maximum fluorescence signal, x is the concentration of the agonist or antagonist (in this case, capsaicin), a is the Emax, b corresponds to the EC50 value and c is the Hill coefficient. Determination of Agonist Activity
Test compounds are dissolved in DMSO, diluted in 20 μl KRH buffer so that the final concentration of test compounds in the assay well is between 1 μM and 5 μM, and added to cells prepared as described above. The 96 well plates containing prepared cells and test compounds are incubated in the dark, at room temperature for 0.5 to 6 hours. It is important that the incubation not continue beyond 6 hours. Just prior to determining the fluorescence response, 100 μl capsaicin in KRH buffer at twice the EC50 concentration determined as described above is automatically added by the FLIPR instrument to each well of the 96 well plate for a final sample volume of 200 μl and a final capsaicin concentration equal to the EC50. The final concentration of test compounds in the assay wells is between 1 μM and 5 μM. […] The concentration of antagonist required to provide a 50% decrease, relative to the response observed in the presence of capsaicin and without antagonist, is the IC50 for the antagonist, and is preferably below 1 micromolar, 100 nanomolar, 10 nanomolar or 1 nanomolar.
(A change in cytosolic calcium serves as a functional read-out for many receptors and channels.)

Each structure is given as a SMILES string.

T1 sequence (Q8NER1 whole entry): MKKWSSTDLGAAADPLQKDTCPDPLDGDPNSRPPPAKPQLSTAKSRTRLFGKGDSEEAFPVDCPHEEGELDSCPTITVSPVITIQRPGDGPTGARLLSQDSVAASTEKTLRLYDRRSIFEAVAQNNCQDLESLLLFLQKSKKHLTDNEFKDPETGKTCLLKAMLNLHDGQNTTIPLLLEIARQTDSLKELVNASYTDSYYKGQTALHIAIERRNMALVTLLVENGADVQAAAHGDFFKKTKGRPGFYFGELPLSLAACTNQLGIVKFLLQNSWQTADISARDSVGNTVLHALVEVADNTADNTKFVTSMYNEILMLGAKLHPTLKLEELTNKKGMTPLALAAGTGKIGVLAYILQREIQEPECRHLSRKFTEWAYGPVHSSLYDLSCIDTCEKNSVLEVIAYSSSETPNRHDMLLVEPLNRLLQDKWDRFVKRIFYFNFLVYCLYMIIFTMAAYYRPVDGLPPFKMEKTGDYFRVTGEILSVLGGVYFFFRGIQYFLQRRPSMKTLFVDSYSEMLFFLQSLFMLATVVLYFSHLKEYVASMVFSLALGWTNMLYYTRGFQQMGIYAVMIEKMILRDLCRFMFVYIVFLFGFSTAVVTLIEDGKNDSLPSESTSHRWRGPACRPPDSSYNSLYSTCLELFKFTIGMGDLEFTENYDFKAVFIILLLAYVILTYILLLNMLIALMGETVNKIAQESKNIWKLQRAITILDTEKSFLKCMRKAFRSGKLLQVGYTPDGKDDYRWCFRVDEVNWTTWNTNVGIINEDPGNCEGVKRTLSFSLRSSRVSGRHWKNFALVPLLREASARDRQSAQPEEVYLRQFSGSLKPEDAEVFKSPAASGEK

With `FC(F)(F)c1ccccc1CCNc1ncnc2cc(-c3ncccc3C(F)(F)F)ccc12` [Compound 15, N-{2-[2-(trifluoromethyl)phenyl]ethyl}-7-[3-(trifluoromethyl)pyridin-2-yl]quinazolin-4-amine], where the note is “Table I”, the IC50 was at most 1000 nM.
In the case of `FC(F)(F)c1cccnc1-c1ccc2c(NCCc3ccccc3Cl)ncnc2c1` [Compound 12, N-[2-(2-chlorophenyl)ethyl]-7-[3-(trifluoromethyl)pyridin-2-yl]quinazolin-4-amine], the IC50 (Table I) was at most 1000 nM.
As to `COc1ccccc1CCNc1nc(COCC(C)C)nc2nc(-c3ncccc3C(F)(F)F)ccc12` [Compound 41, 2-(isobutoxymethyl)-N-[2-(2-methoxyphenyl)ethyl]-7-[3-(trifluoromethyl)pyridin-2-yl]pyrido[2,3-d]pyrimidin-4-amine], the IC50 (Table I) is at most 1000 nM.
For `Fc1cccc(CCNc2ncnc3cc(-c4ncccc4C(F)(F)F)ccc23)c1` [Compound 7, N-[2-(3-fluorophenyl)ethyl]-7-[3-(trifluoromethyl)pyridin-2-yl]quinazolin-4-amine], the IC50 (Table I) was at most 1000 nM.
Take `Cc1nc(NCCc2ccccc2Cl)c2ccc(-c3ncccc3C)nc2n1` [Compound 32, N-[2-(2-chlorophenyl)ethyl]-2-methyl-7-(3-methylpyridin-2-yl)pyrido[2,3-d]pyrimidin-4-amine]: under “Table I”, the IC50 was at most 1000 nM.
For `FC(F)(F)c1cccnc1-c1ccc2c(N[C@H]3CCCc4ccccc43)ncnc2c1` [Compound 81, (1,2,3,4-Tetrahydro-naphthalen-1-yl)-[7-(3-trifluoromethyl-pyridin-2-yl)-quinazolin-4-yl]-amine], the IC50 (Table II) is at most 1000 nM.
As to `CC(C)COCc1nc(NCCc2ccc(Cl)cc2)c2ccc(-c3ncccc3C(F)(F)F)nc2n1` [Compound 35, N-[2-(4-chlorophenyl)ethyl]-2-(isobutoxymethyl)-7-[3-(trifluoromethyl)pyridin-2-yl]pyrido[2,3-d]pyrimidin-4-amine], the concentration for half-maximal inhibition (IC50) (Table I) was at most 1000 nM.
Regarding `Cc1ccccc1CCNc1nc(CN2CCC3(CC2)OCCO3)nc2cc(-c3ncccc3C(F)(F)F)ccc12` [Compound 110, [2-(1,4-Dioxa-8-aza-spiro[4.5]dec-8-ylmethyl)-7-(3-trifluoromethyl-pyridin-2-yl)-quinazolin-4-yl]-(2-o-tolyl-ethyl)-amine], the 50% inhibitory concentration (IC50) (Table II) is at most 1000 nM.
Regarding `Fc1ccc(CCNc2ncnc3cc(-c4ncccc4C(F)(F)F)ccc23)cc1` [Compound 8, N-[2-(4-fluorophenyl)ethyl]-7-[3-(trifluoromethyl)pyridin-2-yl]quinazolin-4-amine], for the setting “Table I”, the IC50 is at most 1000 nM.
Same read-out and setting: the same measure for `COc1cccc(CCNc2nc(COCC(C)C)nc3nc(-c4ncccc4C(F)(F)F)ccc23)c1` [Compound 42, 2-(isobutoxymethyl)-N-[2-(3-methoxyphenyl)ethyl]-7-[3-(trifluoromethyl)pyridin-2-yl]pyrido[2,3-d]pyrimidin-4-amine]: at most 1000 nM.
Consider `CCCCCCN(CCCCCC)Cc1nc(NCCc2ccccc2)c2ccc(-c3ncccc3C(F)(F)F)cc2n1` [Compound 173, [2-Dihexylaminomethyl-7-(3-trifluoromethyl-pyridin-2-yl)-quinazolin-4-yl]-phenethyl-amine], for which the IC50 (Table II) was at most 1000 nM.
On to `Fc1ccccc1CCNc1ncnc2cc(-c3ncccc3C(F)(F)F)ccc12` [Compound 6, N-[2-(2-fluorophenyl)ethyl]-7-[3-(trifluoromethyl)pyridin-2-yl]quinazolin-4-amine], for which the IC50 (Table I) was at most 1000 nM.
Still for that read-out and setting: the same measure for `FC(F)(F)c1cccnc1-c1ccc2c(NCCc3cccc(Cl)c3)ncnc2c1` [Compound 13, N-[2-(3-chlorophenyl)ethyl]-7-{3-(trifluoromethyl)pyridin-2-yl]quinazolin-4-amine]: at most 1000 nM.
In the case of `CC(C)COCc1nc(NC2Cc3ccccc3C2)c2ccc(-c3ncccc3Cl)nc2n1` [Compound 61, 7-(3-chloropyridin-2-yl)-N-(2,3-dihydro-1H-inden-2-yl)-2-(isobutoxymethyl)pyrido[2,3-d]pyrimidin-4-amine], the IC50 (Table I) was at most 1000 nM.
